Several values for one entry are separate records, joined by “and”; a condition that tells them apart may be missing. Equal values may be shown once.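 Following 48 hours of exposure in 96-well plates, responses at five concentrations were used to interpolate endpoints linearly. GI50 = concentration required for 50% inhibition of growth. TGI: concentration producing complete growth inhibition.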
Key:
Assay in all cases: growth of human tumour cells (NCI), 48 h
SF-539 CNS = test system: SF-539 CNS
SNB-75 CNS = test system: SNB-75 CNS
SK-OV-3 ovarian = test system: SK-OV-3 ovarian
NCI-H460 lung = test system: NCI-H460 lung
A549 NSCLC = test system: A549 NSCLC
UO-31 renal = test system: UO-31 renal
MOLT-4 leukemia = test system: MOLT-4 leukemia
T-47D breast = test system: T-47D breast
SF-268 CNS = test system: SF-268 CNS
IGROV1 ovarian = test system: IGROV1 ovarian
OVCAR-8 ovarian = test system: OVCAR-8 ovarian
HCT-15 colon = test system: HCT-15 colon
OVCAR-5 ovarian = test system: OVCAR-5 ovarian
K-562 leukemia = test system: K-562 leukemia
NCI-H23 lung = test system: NCI-H23 lung
CCRF-CEM leukemia = test system: CCRF-CEM leukemia
786-0 renal = test system: 786-0 renal
SNB-19 CNS = test system: SNB-19 CNS
ACHN renal = test system: ACHN renal
MALME-3M melanoma = test system: MALME-3M melanoma
RPMI-8226 leukemia = test system: RPMI-8226 leukemia
NCI/ADR-RES ovarian = test system: NCI/ADR-RES ovarian
SW-620 colon = test system: SW-620 colon
UACC-257 melanoma = test system: UACC-257 melanoma
PC-3 prostate = test system: PC-3 prostate
UACC-62 melanoma = test system: UACC-62 melanoma
OVCAR-3 ovarian = test system: OVCAR-3 ovarian
RXF 393 renal = test system: RXF 393 renal
KM12 colon = test system: KM12 colon
CAKI-1 renal = test system: CAKI-1 renal
SK-MEL-2 melanoma = test system: SK-MEL-2 melanoma
HOP-92 NSCLC = test system: HOP-92 NSCLC
TK-10 renal = test system: TK-10 renal
NCI-H226 lung = test system: NCI-H226 lung
LOX IMVI melanoma = test system: LOX IMVI melanoma
HL-60(TB) leukemia = test system: HL-60(TB) leukemia
COLO 205 colon = test system: COLO 205 colon
HOP-62 NSCLC = test system: HOP-62 NSCLC
HCT-116 colon = test system: HCT-116 colon
MCF7 breast = test system: MCF7 breast
OVCAR-4 ovarian = test system: OVCAR-4 ovarian
A498 renal = test system: A498 renal
HCC-2998 colon = test system: HCC-2998 colon
M14 melanoma = test system: M14 melanoma
HT29 colon = test system: HT29 colon
SK-MEL-28 melanoma = test system: SK-MEL-28 melanoma
SK-MEL-5 melanoma = test system: SK-MEL-5 melanoma
HS 578T breast = test system: HS 578T breast
SN12C renal = test system: SN12C renal
NCI-H522 lung = test system: NCI-H522 lung
SR leukemia = test system: SR leukemia
BT-549 breast = test system: BT-549 breast
U251 CNS = test system: U251 CNS
SF-295 CNS = test system: SF-295 CNS
DU-145 prostate = test system: DU-145 prostate
EKVX NSCLC = test system: EKVX NSCLC
MDA-MB-231 breast = test system: MDA-MB-231 breast
MDA-MB-435 = test system: MDA-MB-435

For `Cc1nc(NC(=O)N2CCC[C@H]2C(N)=O)sc1-c1ccnc(C(C)(C)C(F)(F)F)c1`, the GI50 (SF-539 CNS) was 3.93 µM and 4.6 µM, the TGI (SF-539 CNS) was 24.3 µM and > 10 µM and the GI50 (SNB-75 CNS) was 0.594 µM. For the same molecule, the TGI (SNB-75 CNS) was 15.5 µM, the GI50 (SK-OV-3 ovarian) was 0.134 µM and 0.262 µM and the TGI (SK-OV-3 ovarian) was 5.98 µM and 6.37 µM. The GI50 (NCI-H460 lung) was 1.36 µM and 2.02 µM, the TGI (NCI-H460 lung) was greater than 100 µM and the GI50 (A549 NSCLC) was 2.94 µM and 4.74 µM. The TGI (A549 NSCLC) was 30.9 µM and > 10 µM, the GI50 (UO-31 renal) was 2.48 µM and 2.07 µM and the TGI (UO-31 renal) was 36.7 µM and > 10 µM. The GI50 (MOLT-4 leukemia) was 2.49 µM and 2.94 µM, the TGI (MOLT-4 leukemia) was 28.2 µM and > 10 µM and the GI50 (T-47D breast) was 0.0412 µM and 0.0507 µM. The TGI (T-47D breast) was 1.79 µM and 0.599 µM, the GI50 (SF-268 CNS) was 9.71 µM and 9.76 µM and the TGI (SF-268 CNS) was greater than 86.5 µM. For the same molecule, the GI50 (IGROV1 ovarian) was 0.0558 µM and 0.121 µM, the TGI (IGROV1 ovarian) was 0.483 µM and 0.816 µM and the GI50 (OVCAR-8 ovarian) was 8.28 µM and > 10 µM. The TGI (OVCAR-8 ovarian) was 76.2 µM and > 10 µM, the GI50 (HCT-15 colon) was 1.36 µM and 2.81 µM and the TGI (HCT-15 colon) was 47 µM and > 10 µM. For the same molecule, the GI50 (OVCAR-5 ovarian) was 0.776 µM and 1.02 µM, the TGI (OVCAR-5 ovarian) was 57.4 µM and > 10 µM and the GI50 (K-562 leukemia) was 28.1 µM and > 10 µM. For the same molecule, the TGI (K-562 leukemia) was greater than 100 µM, the GI50 (NCI-H23 lung) was 10.2 µM and > 10 µM and the TGI (NCI-H23 lung) was 61.9 µM and > 10 µM. The GI50 (CCRF-CEM leukemia) was 5.13 µM and 5.71 µM, the TGI (CCRF-CEM leukemia) was 75.4 µM and > 10 µM and the GI50 (786-0 renal) was 11.1 µM and > 10 µM. For the same molecule, the TGI (786-0 renal) was 64.1 µM and > 10 µM, the GI50 (SNB-19 CNS) was 8.6 µM and > 10 µM and the TGI (SNB-19 CNS) was 66.2 µM and > 10 µM. The GI50 (ACHN renal) was 5.6 µM and > 10 µM, the TGI (ACHN renal) was greater than 100 µM and the GI50 (MALME-3M melanoma) was 1.8 µM and > 10 µM. For the same molecule, the TGI (MALME-3M melanoma) was 22.4 µM and > 10 µM, the GI50 (RPMI-8226 leukemia) was 16.1 µM and > 10 µM and the TGI (RPMI-8226 leukemia) was 58.5 µM and > 10 µM. The GI50 (NCI/ADR-RES ovarian) was 14.6 µM and > 10 µM, the TGI (NCI/ADR-RES ovarian) was 85.8 µM and > 10 µM and the GI50 (SW-620 colon) was 4.82 µM and 7.37 µM. The TGI (SW-620 colon) was greater than 67.1 µM, the GI50 (UACC-257 melanoma) was 9.58 µM and > 10 µM and the TGI (UACC-257 melanoma) was 45 µM and > 10 µM. For the same molecule, the GI50 (PC-3 prostate) was 2.19 µM and 3.61 µM, the TGI (PC-3 prostate) was 25.4 µM and > 10 µM and the GI50 (UACC-62 melanoma) was 3.18 µM and 3.05 µM. For the same molecule, the TGI (UACC-62 melanoma) was 18.7 µM and > 10 µM, the GI50 (OVCAR-3 ovarian) was 4.16 µM and 8 µM and the TGI (OVCAR-3 ovarian) was 30.7 µM and > 10 µM. The GI50 (RXF 393 renal) was 2.78 µM and 3.45 µM, the TGI (RXF 393 renal) was 17.3 µM and > 10 µM and the GI50 (KM12 colon) was 15.4 µM and > 10 µM. The TGI (KM12 colon) was greater than 91.5 µM, the GI50 (CAKI-1 renal) was 2.39 µM and 3.35 µM and the TGI (CAKI-1 renal) was 17.8 µM and > 10 µM. The GI50 (SK-MEL-2 melanoma) was 6.94 µM and > 10 µM, the TGI (SK-MEL-2 melanoma) was 24.1 µM and > 10 µM and the GI50 (HOP-92 NSCLC) was 0.0598 µM and 0.13 µM. The TGI (HOP-92 NSCLC) was 1.52 µM and 2.89 µM, the GI50 (TK-10 renal) was 1.2 µM and 0.789 µM and the TGI (TK-10 renal) was 15.8 µM and > 10 µM. The GI50 (NCI-H226 lung) was 5.26 µM and 4.54 µM, the TGI (NCI-H226 lung) was 45.7 µM and > 10 µM and the GI50 (LOX IMVI melanoma) was 3.36 µM and 2.58 µM. For the same molecule, the TGI (LOX IMVI melanoma) was 22 µM and > 10 µM, the GI50 (HL-60(TB) leukemia) was 1.04 µM and 0.289 µM and the TGI (HL-60(TB) leukemia) was 37.3 µM and > 10 µM. For the same molecule, the GI50 (COLO 205 colon) was 2.75 µM and 1.38 µM, the TGI (COLO 205 colon) was 19.6 µM and > 10 µM and the GI50 (HOP-62 NSCLC) was 8.06 µM and > 10 µM. For the same molecule, the TGI (HOP-62 NSCLC) was greater than 75.1 µM, the GI50 (HCT-116 colon) was 2.87 µM and 3.48 µM and the TGI (HCT-116 colon) was greater than 87.3 µM. For the same molecule, the GI50 (MCF7 breast) was 0.12 µM and 0.296 µM, the TGI (MCF7 breast) was greater than 38.4 µM and the GI50 (OVCAR-4 ovarian) was 13.3 µM and > 10 µM. The TGI (OVCAR-4 ovarian) was greater than 75.3 µM, the GI50 (A498 renal) was 1.34 µM and 2.07 µM and the TGI (A498 renal) was 5.62 µM and 9.99 µM. For the same molecule, the GI50 (HCC-2998 colon) was 12.8 µM and 6.71 µM, the TGI (HCC-2998 colon) was 49.9 µM and > 10 µM and the GI50 (M14 melanoma) was 8.75 µM and > 10 µM. For the same molecule, the TGI (M14 melanoma) was greater than 82 µM, the GI50 (HT29 colon) was 0.488 µM and 0.477 µM and the TGI (HT29 colon) was 20.8 µM and > 10 µM. The GI50 (SK-MEL-28 melanoma) was 4.72 µM and 6.71 µM, the TGI (SK-MEL-28 melanoma) was greater than 61.6 µM and the GI50 (SK-MEL-5 melanoma) was 11.8 µM and > 10 µM. For the same molecule, the TGI (SK-MEL-5 melanoma) was 24.6 µM and > 10 µM, the TGI (HS 578T breast) was 21.2 µM and 3.1 µM and the GI50 (SN12C renal) was 6.43 µM and > 10 µM. The TGI (SN12C renal) was greater than 100 µM, the GI50 (NCI-H522 lung) was 6.41 µM and 8.17 µM and the TGI (NCI-H522 lung) was 27.1 µM and > 10 µM. For the same molecule, the GI50 (SR leukemia) was 8.94 µM and > 10 µM, the TGI (SR leukemia) was 44.1 µM and > 10 µM and the GI50 (BT-549 breast) was 4.91 µM and 6.33 µM. For the same molecule, the TGI (BT-549 breast) was 44.6 µM and > 10 µM, the GI50 (U251 CNS) was 3.22 µM and 5.54 µM and the TGI (U251 CNS) was 18.7 µM and > 10 µM. The GI50 (SF-295 CNS) was 2.79 µM and 4.1 µM, the TGI (SF-295 CNS) was 16 µM and > 10 µM and the GI50 (DU-145 prostate) was 4.84 µM and 9.16 µM. For the same molecule, the TGI (DU-145 prostate) was greater than 73.1 µM, the GI50 (EKVX NSCLC) was 4.53 µM and the TGI (EKVX NSCLC) was greater than 10 µM. For the same molecule, the GI50 (MDA-MB-231 breast) was 11.3 µM and > 10 µM, the TGI (MDA-MB-231 breast) was 32 µM and > 10 µM and the GI50 (MDA-MB-435) was 7.33 µM and > 10 µM. For the same molecule, the TGI (MDA-MB-435) was 51.6 µM and > 10 µM.

From PubChem BioAssay (NCI)
